Results published in patent US11584747B2, “Substituted pyridopyrimidinonyl compounds useful as T cell activators” (BRISTOL-MYERS SQUIBB COMPANY, priority 2019, dated 2023).
Where two headings read alike, the source gives them in different places.

Key:
[1] = target: human DGKζ (Homo sapiens (Human), UniProt Q13574); test: DGKζ LIPGLO assay (extruded liposome substrate, ADP-Glo luminescence); type: biochemical
[2] = target: human DGKα (Homo sapiens (Human), UniProt P23743); test: DGKα ADPGLO assay (detergent/lipid micelle substrate); type: biochemical
Method: DGK Alpha ADPGLO (Truncated) IC50 (uM)
The detergent/lipid micelle was prepared by combining 15 g phosphatidylserine (Avanti 840035P) and 1 g diacylglycerol (8008110) and dissolving into 150 mL chloroform in a 2 L round bottom flask. Chloroform was removed under high vacuum by rotary evaporation. […] The lipid/detergent solution was split into 5 mL aliquots and stored at −80° C.

[3] = liposome (LIPGLO) assay, read-out: DGK zeta (liposome assay) IC50
[4] = ADPGLO assay, read-out: DGK alpha ADPGLO IC50
[5] = liposome assay, read-out: DGK zeta LIPGLO IC50
[6] = truncated DGK alpha, read-out: DGK alpha ADPGLO (Truncated) IC50

Chain of human DGKζ (Q13574 other isoform, or with tags, fused parts or gaps): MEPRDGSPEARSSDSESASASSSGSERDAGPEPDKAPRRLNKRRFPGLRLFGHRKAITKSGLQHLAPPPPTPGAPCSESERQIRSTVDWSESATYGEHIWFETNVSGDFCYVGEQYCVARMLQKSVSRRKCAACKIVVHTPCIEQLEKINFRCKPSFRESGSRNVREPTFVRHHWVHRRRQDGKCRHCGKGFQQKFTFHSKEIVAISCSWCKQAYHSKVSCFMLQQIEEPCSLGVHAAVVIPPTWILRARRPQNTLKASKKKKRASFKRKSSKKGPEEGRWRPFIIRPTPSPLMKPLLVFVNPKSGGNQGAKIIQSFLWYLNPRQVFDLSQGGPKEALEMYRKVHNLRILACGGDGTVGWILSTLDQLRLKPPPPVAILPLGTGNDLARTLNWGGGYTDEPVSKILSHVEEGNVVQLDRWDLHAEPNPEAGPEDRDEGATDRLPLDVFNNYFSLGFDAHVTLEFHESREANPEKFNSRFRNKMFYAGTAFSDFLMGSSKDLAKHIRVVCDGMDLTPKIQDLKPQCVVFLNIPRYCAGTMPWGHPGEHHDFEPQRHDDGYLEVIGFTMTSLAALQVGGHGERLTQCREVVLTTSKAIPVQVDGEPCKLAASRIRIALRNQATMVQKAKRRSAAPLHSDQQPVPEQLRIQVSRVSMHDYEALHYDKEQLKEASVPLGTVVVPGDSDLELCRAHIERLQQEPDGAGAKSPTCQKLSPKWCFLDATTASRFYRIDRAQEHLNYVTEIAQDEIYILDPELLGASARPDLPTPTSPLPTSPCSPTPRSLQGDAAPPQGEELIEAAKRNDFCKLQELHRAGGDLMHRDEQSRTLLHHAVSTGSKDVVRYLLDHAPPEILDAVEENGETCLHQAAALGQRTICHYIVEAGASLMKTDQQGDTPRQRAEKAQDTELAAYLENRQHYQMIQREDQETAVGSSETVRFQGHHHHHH
Chain of human DGKα (P23743 whole entry, looked up, the tested form may be a part): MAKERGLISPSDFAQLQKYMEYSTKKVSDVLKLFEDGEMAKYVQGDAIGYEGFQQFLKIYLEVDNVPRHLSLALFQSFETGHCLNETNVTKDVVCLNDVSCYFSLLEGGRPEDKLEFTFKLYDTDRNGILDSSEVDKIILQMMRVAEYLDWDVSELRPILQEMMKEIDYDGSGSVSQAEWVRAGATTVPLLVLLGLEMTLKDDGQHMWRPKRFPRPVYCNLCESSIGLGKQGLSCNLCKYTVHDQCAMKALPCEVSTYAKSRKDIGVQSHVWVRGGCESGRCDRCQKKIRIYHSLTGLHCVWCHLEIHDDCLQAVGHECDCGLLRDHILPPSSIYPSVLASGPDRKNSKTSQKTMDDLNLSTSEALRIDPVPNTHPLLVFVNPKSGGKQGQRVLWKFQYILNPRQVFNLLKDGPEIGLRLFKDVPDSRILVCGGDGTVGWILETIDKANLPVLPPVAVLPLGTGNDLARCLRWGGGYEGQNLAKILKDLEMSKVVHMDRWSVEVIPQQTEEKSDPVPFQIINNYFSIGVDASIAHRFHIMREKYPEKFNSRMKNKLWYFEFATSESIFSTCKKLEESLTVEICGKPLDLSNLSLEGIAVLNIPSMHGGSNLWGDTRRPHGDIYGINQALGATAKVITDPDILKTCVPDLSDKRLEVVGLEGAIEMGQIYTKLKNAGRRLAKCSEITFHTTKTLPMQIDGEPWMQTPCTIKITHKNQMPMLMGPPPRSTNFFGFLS

Row | Structure (SMILES) | IC50 [1, 3] | IC50 [2, 4] | IC50 [1, 5] | IC50 [2, 6]
1 | CC[C@H]1CN(C(C)c2ccc3oc(C4CC4)nc3c2)[C@H](CC)CN1c1nc(=O)n(C)c2ccc(C#N)nc12 (stereo partly drawn) [Example 254, 4-((2S,5R)-4-(1-(2-cyclopropylbenzo[d]oxazol-5-yl)ethyl)-2,5-diethylpiperazin-1-yl)-1-methyl-2-oxo-1,2-dihydropyrido[3,2-d]pyrimidine-6-carbonitrile] |  |  | 2150 nM | 2850 nM
2 | CC[C@H]1CN(C(C)c2ccc3oc(C4CC4)nc3c2)[C@H](CC)CN1c1nc(=O)n(C)c2ccc(C#N)nc12 (stereo partly drawn) [Example 253, 4-((2S,5R)-4-(1-(2-cyclopropylbenzo[d]oxazol-5-yl)ethyl)-2,5-diethylpiperazin-1-yl)-1-methyl-2-oxo-1,2-dihydropyrido[3,2-d]pyrimidine-6-carbonitrile] |  |  | 97 nM | 3800 nM
3 | CC[C@@H]1CN(c2nc(=O)n(C)c3ccc(C#N)nc23)[C@@H](CC)CN1Cc1ccc(OCC2CC2)cc1 [Example 185, 4-((2S,5R)-4-(4-(Cyclopropylmethoxy)benzyl)-2,5-diethylpiperazin-1-yl)-1-methyl-2-oxo-1,2-dihydropyrido[3,2-d]pyrimidine-6-carbonitrile] |  |  | 610 nM | 270 nM
4 | CCC(c1ccc(C2CC2)cc1F)N1C[C@H](C)N(c2nc(=O)n(C)c3ccc(C#N)nc23)C[C@H]1CC (stereo partly drawn) [Example 303, 4-((2S,5R)-4-(1-(4-cyclopropyl-2-fluorophenyl)propyl)-5-ethyl-2-methylpiperazin-1-yl)-1-methyl-2-oxo-1,2-dihydropyrido[3,2-d]pyrimidine-6-carbonitrile] |  |  | 5070 nM | 1770 nM
5 | CC[C@H]1CN(C(C)c2ccc(C3(C)CC3)cc2)[C@H](CC)CN1c1nc(=O)n(C)c2ccc(C#N)nc12 (stereo partly drawn) [Example 218, 4-((2S,5R)-2,5-diethyl-4-(1-(4-(1-methylcyclopropyl)phenyl)ethyl)piperazin-1-yl)-1-methyl-2-oxo-1,2-dihydropyrido[3,2-d]pyrimidine-6-carbonitrile] |  |  | 18 nM | 78 nM
6 | CCC(c1ccc(C2CC2)cc1)N1C[C@H](C)N(c2nc(=O)n(C)c3ccc(C#N)nc23)C[C@H]1CC (stereo partly drawn) [Example 300, 4-((2S,5R)-4-(1-(4-cyclopropylphenyl)propyl)-5-ethyl-2-methylpiperazin-1-yl)-1-methyl-2-oxo-1,2-dihydropyrido[3,2-d]pyrimidine-6-carbonitrile] |  |  | 22 nM | 13 nM
7 | CC[C@H]1CN(C(C)c2ccc(CN3CCN(C)C(=O)C3)cc2)[C@H](CC)CN1c1nc(=O)n(C)c2ccc(C#N)nc12 (stereo partly drawn) [Example 288, 4-((2S,5R)-2,5-diethyl-4-(1-(4-((4-methyl-3-oxopiperazin-1-yl)methyl)phenyl)ethyl)piperazin-1-yl)-1-methyl-2-oxo-1,2-dihydropyrido[3,2-d]pyrimidine-6-carbonitrile] |  |  | 31700 nM | 4110 nM
8 | CCOC(=O)[C@H]1C[C@@H]1Oc1ccc(C(C)N2C[C@H](CC)N(c3nc(=O)n(C)c4ccc(C#N)nc34)C[C@H]2CC)cc1 (stereo partly drawn) [Example 259, ethyl (1S,2S)-2-(4-(1-((2R,5S)-4-(6-cyano-1-methyl-2-oxo-1,2-dihydropyrido[3,2-d]pyrimidin-4-yl)-2,5-diethylpiperazin-1-yl)ethyl)phenoxy)cyclopropane-1-carboxylate] |  |  | 1800 nM | 2170 nM
9 | CCC(c1ccc(C2CC2)cc1)N1C[C@H](CC)N(c2nc(=O)n(C)c3ccc(C#N)nc23)C[C@H]1CC (stereo partly drawn) [Example 200, 4-((2S,5R)-4-(1-(4-cyclopropylphenyl)propyl)-2,5-diethylpiperazin-1-yl)-1-methyl-2-oxo-1,2-dihydropyrido[3,2-d]pyrimidine-6-carbonitrile] |  |  | 13 nM | 12 nM
10 | CCC(c1ccc(OC(F)F)cc1)N1C[C@H](CC)N(c2nc(=O)n(C)c3ccc(C#N)nc23)C[C@H]1CC (stereo partly drawn) [Example 222, 4-((2S,5R)-4-(1-(4-(difluoromethoxy)phenyl)propyl)-2,5-diethylpiperazin-1-yl)-1-methyl-2-oxo-1,2-dihydropyrido[3,2-d]pyrimidine-6-carbonitrile] |  |  | 17 nM | 2 nM
11 | CCC(c1ccc(OC(C)C)cc1)N1C[C@H](CC)N(c2nc(=O)n(C)c3ccc(C#N)nc23)C[C@H]1CC (stereo partly drawn) [Example 235, 4-((2S,5R)-2,5-diethyl-4-(1-(4-isopropoxyphenyl)propyl)piperazin-1-yl)-1-methyl-2-oxo-1,2-dihydropyrido[3,2-d] pyrimidine-6-carbonitrile] |  |  | 780 nM | 430 nM

Next, values leading:

Row | IC50 [1, 3] | IC50 [2, 4] | IC50 [1, 5] | IC50 [2, 6] | Structure (SMILES)
12 | 7550 nM | 5120 nM |  |  | CCC(C1CC1)N1C[C@H](C)N(c2nc(=O)n(C)c3ccc(C#N)nc23)C[C@H]1C (stereo partly drawn) [Example 455, 4-((2S,5R)-4-(1-cyclopropylpropyl)-2,5-dimethylpiperazin-1-yl)-1-methyl-2-oxo-1,2-dihydropyrido[3,2-d]pyrimidine-6-carbonitrile]
13 | 2250 nM | 1170 nM |  |  | CC[C@@H]1CN(c2nc(=O)n(C)c3ccc(C#N)nc23)[C@@H](C)CN1C(c1nnc(C2CC2)o1)C(C)C (single isomer, unassigned) [Example 368]
14 | 750 nM | 440 nM |  |  | CC[C@@H]1CN(c2nc(=O)[nH]c3ccc(C#N)nc23)[C@@H](C)CN1C(C)c1ccc(C(F)(F)F)cc1 (single isomer, unassigned) [Example 413]
15 | 660 nM | 150 nM |  |  | CC[C@@H]1CN(c2nc(=O)n(C)c3ccc(C#N)nc23)[C@@H](C)CN1C(C)c1ccc(CNC(=O)OC)cc1 (stereo partly drawn) [Example 360, Methyl (4-(1-((2R,5S)-4-(6-cyano-1-methyl-2-oxo-1,2-dihydropyrido[3,2-d]pyrimidin-4-yl)-2-ethyl-5-methylpiperazin-1-yl)ethyl)benzyl)carbamate]
16 | 910 nM | 280 nM |  |  | CC[C@@H]1CN(c2nc(=O)n(C)c3ccc(C(F)F)nc23)[C@@H](C)CN1C(C)c1ccc(C(F)(F)F)cc1 (stereo partly drawn) [Example 442, 6-(difluoromethyl)-4-((2S,5R)-5-ethyl-2-methyl-4-(1-(4-(trifluoromethyl)phenyl)ethyl)piperazin-1-yl)-1-methylpyrido[3,2-d]pyrimidin-2(1H)-one]
17 | 3410 nM | 850 nM |  |  | CCC(c1ccc(C2CC2)cc1F)N1C[C@H](C)N(c2nc(=O)n(C)c3ccc(C#N)nc23)C[C@H]1C (stereo partly drawn) [Example 381, 4-((2S,5R)-4-(1-(4-cyclopropyl-2-fluorophenyl)propyl)-2,5-dimethylpiperazin-1-yl)-1-methyl-2-oxo-1,2-dihydropyrido[3,2-d]pyrimidine-6-carbonitrile]
18 | 870 nM | 600 nM |  |  | CCC(c1ccc(OC2CC2)cc1)N1C[C@H](C)N(c2nc(=O)n(C)c3ccc(C#N)nc23)C[C@H]1CC (stereo partly drawn) [Example 312, 4-((2S,5R)-4-(1-(4-cyclopropoxyphenyl)propyl)-5-ethyl-2-methylpiperazin-1-yl)-1-methyl-2-oxo-1,2-dihydropyrido[3,2-d]pyrimidine-6-carbonitrile]
19 | 180 nM | 29 nM |  |  | CCC(c1ccc(C2CC2)cc1F)N1C[C@H](C)N(c2nc(=O)n(C)c3ccc(C#N)nc23)C[C@H]1C (stereo partly drawn) [Example 380, 4-((2S,5R)-4-(1-(4-cyclopropyl-2-fluorophenyl)propyl)-2,5-dimethylpiperazin-1-yl)-1-methyl-2-oxo-1,2-dihydropyrido[3,2-d]pyrimidine-6-carbonitrile]
